Measurements reported in patent publication US20260125346A1, “Isoquinolinone Derivatives and 4H-Quinolizinone Derivatives and Pharmaceutical Compositions Thereof for the Treatment of Disease” (BeOne Medicines I GmbH, priority 2023, published 2026).
pIC50: −log10 of the molar value.

Columns and labels:
Assay type in all cases: cell-based
[1] = test system: PI3Kα H1047R mutated cell line T-47D cells; test: Cell Proliferation Assay (CellTiter-Glo), T-47D; settings: for pIC50: Homo sapiens, T47D, 72 h, T-47D, 3 days treatment; for Selectivity: SK-BR-3/T-47D (cell proliferation): cell proliferation IC50 ratio
In short: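 T-47D cells seeded overnight at 3×10^3/well, then exposed 3 days to 9-point 1:3 dilutions, final […] to 1 nM in 0.1% DMSO. CellTiter-Glo luminescence; relative IC50 from percent inhibition versus medium-only and 0.1% DMSO controls, 4-parameter logistic fit.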

WT cell line SK-BR-3 [2] = test: Phospho-AKT (Ser473) Inhibition Assay (HTRF), SK-BR-3; settings: Homo sapiens; SK-BR-3, 1 hour treatment; read-out: p-AKT Inhibition assay (S473) IC50 SK-BR-3
In short: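 SK-BR-3 (PI3Kα WT) cells seeded overnight in MEM with insulin, then treated 1 h with 11-point 1:3 dilutions (10 μM to 0.1 nM, 0.1% DMSO). Lysates read for phospho-AKT Ser473 by HTRF after 4 h antibody incubation at room temperature. IC50 from 4-parameter fit, % inhibition normalized to DMSO (max) and 10 μM GDC0077 (min).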

WT cell line SK-BR-3 [3] = test: Cell Proliferation Assay (CellTiter-Glo), SK-BR-3; settings: Homo sapiens, 72 h; SK-BR-3, 3 days treatment
Protocol: The SK-BR-3 (ATCC, HTB-30) cell line was obtained from the American Type Culture Collection. Cells were maintained in McCoy' 5A medium (Gibco, REF #16600108) supplemented with 10% Fetal Bovine Serum. Cultures were maintained in a humidified incubator at 37° C. under 5% CO2/95% air.
Cell Proliferation Assay. PI3Kα H1047R mutated cell line T-47D cells and WT cell line SK-BR-3 were seeded at a density of 3×10^3 cells per well in 96 well plate (Xinyou Biotechnology, 062096) in 95 μL of culture medium, overnight. Compounds dissolved in 10 mM stock solutions in DMSO were serially diluted 1:3 in DMSO to generate a 9-point dilution series and plated using an INTEGRA ASSIST Plus pipetting robot. A 20× intermediate compound dilution plate in RPMI1640 medium (200 M starting compound concentration in 2% DMSO) was then prepared. Five μL of intermediate serially diluted compounds were added to the cell plate to final concentrations ranging from […] to 1 nM in 0.1% DMSO. 0.1% DMSO alone was used to establish the maximum signal and medium without cells was for minimum signal. After 3 days treatment, equilibrated the plate and its contents at room temperature for approximately 30 minutes. Added 30 μL CellTiter-Glo® Reagent (Promega, REF #G7571) to each well. Then mixed contents for 5 min on plate shaker to induce cell lysis. Incubated at room temperature for 10 minutes to stabilize luminescent signal. The plates were read on PHERAstar FSX Microplate reader using standard luminescence settings.
Relative IC50 values were determined using luminescence units by calculating percent inhibition with respect to the in-plate “MIN” (medium only) and “MAX” (0.1% DMSO) controls. The data were analyzed using a 4-parameter nonlinear logistic equation (four-parameter logistic concentration-response curve): Y=bottom+[(top−bottom)/1+(X/IC50) slope] • where Y=% inhibition, X=concentration of inhibitor, bottom=minimum value of y attained by curve-fit, top=maximum value of y attained by curve-fit and slope=steepness of curve at the IC50.

In the case of `Cc1cc(C(C)Nc2ccccc2C(=O)O)c2cc(-c3cncc(F)c3)n(C)c(=O)c2c1` (centres unmarked) [Example 38, 2-((1-(3-(5-fluoropyridin-3-yl)-2,7-dimethyl-1-oxo-1,2-dihydroisoquinolin-5-yl)ethyl)amino)benzoic acid], the pIC50 [1] was 6.67, the “Selectivity: SK-BR-3/T-47D (cell proliferation)” value (“Selectivity: SK-BR-3/T-47D” for short) [1] was over 46 and the pIC50 (WT cell line SK-BR-3 [2]) was under 5.00. It also gave a pIC50 (WT cell line SK-BR-3 [3]) of under 5.00.

`Cc1cc(C(C)Nc2ccccc2C(=O)O)c2cc(-c3ccccc3C)n(C)c(=O)c2c1` (centres unmarked) [Example 2, 2-((1-(2,7-dimethyl-1-oxo-3-(o-tolyl)-1,2-dihydroisoquinolin-5-yl)ethyl)amino)benzoic acid] was tested, and the pIC50 [1] was 5.91, the “Selectivity: SK-BR-3/T-47D” value [1] was over 8.2 and the pIC50 (WT cell line SK-BR-3 [2]) was 5.55. It also gave a pIC50 (WT cell line SK-BR-3 [3]) of under 5.00.

In the case of `Cc1cc(C(C)Nc2ccccc2C(=O)O)c2cc(-c3ccc(F)cc3)n(CC#N)c(=O)c2c1` (centres unmarked) [Example 63, 2-((1-(2-(cyanomethyl)-3-(4-fluorophenyl)-7-methyl-1-oxo-1,2-dihydroisoquinolin-5-yl)ethyl)amino)benzoic acid], the pIC50 [1] was 6.69, the “Selectivity: SK-BR-3/T-47D” value [1] was over 49 and the pIC50 (WT cell line SK-BR-3 [2]) was 5.32. The pIC50 (WT cell line SK-BR-3 [3]) was under 5.00.

Compound `Cc1cc(C(C)Nc2c(C(=O)O)sc3ccccc23)c2cc(-c3ccccc3)n(C)c(=O)c2c1` (centres unmarked) [Example 48, 3-((1-(2,7-dimethyl-1-oxo-3-phenyl-1,2-dihydroisoquinolin-5-yl)ethyl)amino)benzo[b]thiophene-2-carboxylic acid] has a pIC50 [1] of under 5.00, a pIC50 (WT cell line SK-BR-3 [2]) of 5.42 and a pIC50 (WT cell line SK-BR-3 [3]) of under 5.00.

In the case of `Cc1cc(C(C)Nc2ccccc2C(=O)O)c2cc(-c3cnn(CC45CC6C[C@H](C4)C[C@H](C6)C5)c3C)n(C)c(=O)c2c1` (stereo partly drawn) [Example 87, 2-((1-(3-(1-(((3S,5S)-adamantan-1-yl)methyl)-5-methyl-1H-pyrazol-4-yl)-2,7-dimethyl-1-oxo-1,2-dihydroisoquinolin-5-yl)ethyl)amino)benzoic acid], the pIC50 [1] was 6.05, the “Selectivity: SK-BR-3/T-47D” value [1] was over 11.2 and the pIC50 (WT cell line SK-BR-3 [2]) was 5.55. For the same compound, the pIC50 (WT cell line SK-BR-3 [3]) was under 5.00.

With `Cc1cc(C(C)Nc2ccccc2C(=O)O)c2cc(-c3cc(F)cc(F)c3)n(C)c(=O)c2c1` (centres unmarked) [Example 10, 2-((1-(3-(3,5-difluorophenyl)-2,7-dimethyl-1-oxo-1,2-dihydroisoquinolin-5-yl)ethyl)amino)benzoic acid] the pIC50 [1] was 6.89, the “Selectivity: SK-BR-3/T-47D” value [1] was over 78 and the pIC50 (WT cell line SK-BR-3 [2]) was 5.56. It also gave a pIC50 (WT cell line SK-BR-3 [3]) of under 5.00.

`Cc1cc(C(C)Nc2ccccc2C(=O)O)c2cc(-c3ccc(C(F)(F)F)cc3)n(C)c(=O)c2c1` (centres unmarked) [Example 49, 2-((1-(2,7-dimethyl-1-oxo-3-(4-(trifluoromethyl)phenyl)-1,2-dihydroisoquinolin-5-yl)ethyl)amino)benzoic acid] was tested, and the pIC50 [1] was 6.01, the “Selectivity: SK-BR-3/T-47D” value [1] was over 10 and the pIC50 (WT cell line SK-BR-3 [2]) was 5.34. The pIC50 (WT cell line SK-BR-3 [3]) was under 5.00.

For `Cc1cc(C(C)Nc2ccccc2C(=O)O)c2cc(-c3cncnc3)n(C)c(=O)c2c1` (centres unmarked) [Example 61, 2-((1-(2,7-dimethyl-1-oxo-3-(pyrimidin-5-yl)-1,2-dihydroisoquinolin-5-yl)ethyl)amino)benzoic acid], the pIC50 [1] was 6.47, the “Selectivity: SK-BR-3/T-47D” value [1] was over 29 and the pIC50 (WT cell line SK-BR-3 [2]) was under 5.00. It also gave a pIC50 (WT cell line SK-BR-3 [3]) of under 5.00.

For `Cc1cc(C(C)Nc2ccccc2C(=O)O)c2cc(-c3ccc(F)cc3)n(C3CCOCC3)c(=O)c2c1` (centres unmarked) [Example 96, 2-((1-(3-(4-fluorophenyl)-7-methyl-1-oxo-2-(tetrahydro-2H-pyran-4-yl)-1,2-dihydroisoquinolin-5-yl)ethyl)amino)benzoic acid], the pIC50 [1] was 6.00, the “Selectivity: SK-BR-3/T-47D” value [1] was over 10 and the pIC50 (WT cell line SK-BR-3 [2]) was 5.02. It also gave a pIC50 (WT cell line SK-BR-3 [3]) of under 5.00.

In the case of `Cc1cc(C(C)Nc2ccccc2C(=O)O)c2cc(-c3ccc(F)cc3F)n(C)c(=O)c2c1` (centres unmarked) [Example 11, 2-((1-(3-(2,4-difluorophenyl)-2,7-dimethyl-1-oxo-1,2-dihydroisoquinolin-5-yl)ethyl)amino)benzoic acid], the pIC50 [1] was 6.31, the “Selectivity: SK-BR-3/T-47D” value [1] was over 20.42 and the pIC50 (WT cell line SK-BR-3 [2]) was under 5.00. The pIC50 (WT cell line SK-BR-3 [3]) was under 5.00.

Compound `Cc1cc(C(C)Nc2cc3ccsc3cc2C(=O)O)c2cc(-c3ccccc3)n(C)c(=O)c2c1` (centres unmarked) [Example 47, 5-((1-(2,7-dimethyl-1-oxo-3-phenyl-1,2-dihydroisoquinolin-5-yl)ethyl)amino)benzo[b]thiophene-6-carboxylic acid] has a pIC50 [1] of under 5.00, a pIC50 (WT cell line SK-BR-3 [2]) of under 5.00 and a pIC50 (WT cell line SK-BR-3 [3]) of under 5.00.

`Cc1cc(C(C)Nc2cccnc2C(=O)O)c2cc(-c3ccc(F)cc3)n(C)c(=O)c2c1` (centres unmarked) [Example 33, 3-((1-(3-(4-fluorophenyl)-2,7-dimethyl-1-oxo-1,2-dihydroisoquinolin-5-yl)ethyl)amino)picolinic acid] was tested, and the pIC50 [1] was 5.80, the “Selectivity: SK-BR-3/T-47D” value [1] was over 6.28 and the pIC50 (WT cell line SK-BR-3 [2]) was 5.00. It also gave a pIC50 (WT cell line SK-BR-3 [3]) of under 5.00.

With `Cc1cc(C(C)Nc2ccccc2C(=O)O)c2cc(-c3ccccc3)n(C)c(=O)c2c1` (centres unmarked) [Example 1, 2-((1-(2,7-dimethyl-1-oxo-3-phenyl-1,2-dihydroisoquinolin-5-yl)ethyl)amino)benzoic acid] the pIC50 [1] was 7.07, the “Selectivity: SK-BR-3/T-47D” value [1] was over 118 and the pIC50 (WT cell line SK-BR-3 [2]) was 5.68. It also gave a pIC50 (WT cell line SK-BR-3 [3]) of under 5.00.

In the case of `Cc1cc(C(C)Nc2ccncc2C(=O)O)c2cc(-c3ccc(F)cc3)n(C)c(=O)c2c1` (centres unmarked) [Example 97, 4-((1-(3-(4-fluorophenyl)-2,7-dimethyl-1-oxo-1,2-dihydroisoquinolin-5-yl)ethyl)amino)nicotinic acid], the pIC50 [1] was under 5.00, the pIC50 (WT cell line SK-BR-3 [2]) was under 5.00 and the pIC50 (WT cell line SK-BR-3 [3]) was under 5.00.

For `Cc1cc(C(C)Nc2ccccc2C(=O)O)c2cc(-c3ccc(-c4cnn(C)c4)cc3)n(C)c(=O)c2c1` (centres unmarked) [Example 23, 2-((1-(2,7-dimethyl-3-(4-(1-methyl-1H-pyrazol-4-yl)phenyl)-1-oxo-1,2-dihydroisoquinolin-5-yl)ethyl)amino)benzoic acid], the pIC50 [1] was 6.83, the “Selectivity: SK-BR-3/T-47D” value [1] was over 68 and the pIC50 (WT cell line SK-BR-3 [2]) was 5.77. The pIC50 (WT cell line SK-BR-3 [3]) was under 5.00.

In the case of `COc1ccc(-c2cc3c(C(C)Nc4ccccc4C(=O)O)cc(C)cc3c(=O)n2C)cn1` (centres unmarked) [Example 15, 2-((1-(3-(6-methoxypyridin-3-yl)-2,7-dimethyl-1-oxo-1,2-dihydroisoquinolin-5-yl)ethyl)amino)benzoic acid], the pIC50 [1] was 6.95, the “Selectivity: SK-BR-3/T-47D” value [1] was over 89 and the pIC50 (WT cell line SK-BR-3 [2]) was 5.08. For the same compound, the pIC50 (WT cell line SK-BR-3 [3]) was under 5.00.

With `COc1ncc(-c2cc3c([C@@H](C)Nc4ccccc4C(=O)O)cc(C)cc3c(=O)n2C)cc1F` [Example 59, (R)-2-((1-(3-(5-fluoro-6-methoxypyridin-3-yl)-2,7-dimethyl-1-oxo-1,2-dihydroisoquinolin-5-yl)ethyl)amino)benzoic acid] the pIC50 [1] was 7.03, the “Selectivity: SK-BR-3/T-47D” value [1] was over 107 and the pIC50 (WT cell line SK-BR-3 [2]) was under 5.00. For the same compound, the pIC50 (WT cell line SK-BR-3 [3]) was under 5.00.

In the case of `Cc1cc(C(C)Nc2ccccc2C(=O)O)c2cc(-c3cccc(F)c3)n(C)c(=O)c2c1` (centres unmarked) [Example 7, 2-((1-(3-(3-fluorophenyl)-2,7-dimethyl-1-oxo-1,2-dihydroisoquinolin-5-yl)ethyl)amino)benzoic acid], the pIC50 [1] was 6.99, the “Selectivity: SK-BR-3/T-47D” value [1] was over 98.8 and the pIC50 (WT cell line SK-BR-3 [2]) was 5.73. It also gave a pIC50 (WT cell line SK-BR-3 [3]) of under 5.00.

`CC(Nc1ccccc1C(=O)O)c1cccn2c(=O)cc(-c3ccccc3)cc12` (centres unmarked) [Example 25, 2-((1-(4-oxo-2-phenyl-4H-quinolizin-9-yl)ethyl)amino)benzoic acid] was tested, and the pIC50 [1] was under 5.00, the pIC50 (WT cell line SK-BR-3 [2]) was under 5.00 and the pIC50 (WT cell line SK-BR-3 [3]) was under 5.00.

`Cc1cc(C(C)Nc2ccccc2C(=O)O)c2cc(C3=Cc4ccccc4CC3)n(C)c(=O)c2c1` (centres unmarked) [Example 45, 2-((1-(3-(3,4-dihydronaphthalen-2-yl)-2,7-dimethyl-1-oxo-1,2-dihydroisoquinolin-5-yl)ethyl)amino)benzoic acid] was tested, and the pIC50 [1] was 6.08, the “Selectivity: SK-BR-3/T-47D” value [1] was over 12 and the pIC50 (WT cell line SK-BR-3 [2]) was 5.55. For the same compound, the pIC50 (WT cell line SK-BR-3 [3]) was under 5.00.

`Cc1cc(C(C)Nc2ccccc2C(=O)O)c2cc(-c3ccc4nc(C)sc4c3)n(C)c(=O)c2c1` (centres unmarked) [Example 18, 2-((1-(2,7-dimethyl-3-(2-methylbenzo[d]thiazol-6-yl)-1-oxo-1,2-dihydroisoquinolin-5-yl)ethyl)amino)benzoic acid] was tested, and the pIC50 [1] was 6.65, the “Selectivity: SK-BR-3/T-47D” value [1] was over 45 and the pIC50 (WT cell line SK-BR-3 [2]) was 5.63. The pIC50 (WT cell line SK-BR-3 [3]) was under 5.00.
